Test results reported in the supplement of paper PMC8671470.
Where a name gives a salt, the structure may show the parent alone.

Assays:
Assay in all cases: cell viability (% survival relative to DMSO control); higher = less cytotoxic
Conditions in all cases: 72 h
[1] = test system: myeloid leukemia patient primary cells Pat.6
Outline: (§1)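 Seventy compounds were pre-printed on 384-well plates at five tenfold concentrations between 1 and 10,000 nM, in duplicate. Thawed mononuclear cells purified by Ficoll from AML or CML patients were added at 10,000 cells/well in RPMI 1640 with 10% FBS for 72 h. Viability by CellTiter-Glo was normalised to DMSO and 10 μM proteasome-inhibitor wells. Where stated, area under the curve was taken from log-logistic fits made with the drc and PharmacoGx R packages, each fit having four parameters.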

[2] = test system: myeloid leukemia patient primary cells Pat.8
Outline: as §1

[3] = test system: myeloid leukemia patient primary cells Pat.15
Outline: as §1

[4] = test system: myeloid leukemia patient primary cells Pat.4
Outline: as §1

[5] = test system: myeloid leukemia patient primary cells Pat.10
Outline: as §1

[6] = test system: myeloid leukemia patient primary cells Pat.7
Outline: as §1

[7] = test system: myeloid leukemia patient primary cells Pat.14
Outline: as §1

[8] = test system: myeloid leukemia patient primary cells Pat.12
Outline: as §1

[9] = test system: myeloid leukemia patient primary cells Pat.3
Outline: as §1

`Fc1ccc(CNc2ncnc3ccc(F)cc23)cc1` [Spautin 1] showed a cell viability ([1]; 1 nM) of over 100%, a cell viability ([1]; 10 nM) of 86.8% and a cell viability ([1]; 100 nM) of 96.6%. It also gave a cell viability ([1]; 1000 nM) of 87.9%, a cell viability ([1]; 10000 nM) of 42.2% and a cell viability ([2]; 1 nM) of 93.5%. The cell viability ([2]; 10 nM) was 82.1%, the cell viability ([2]; 100 nM) was 85.6% and the cell viability ([2]; 1000 nM) was 80.7%. The cell viability ([2]; 10000 nM) was 51.1%, the cell viability ([3]; 1 nM) was 96.5% and the cell viability ([3]; 10 nM) was 90.9%. The cell viability ([3]; 100 nM) was 91.5%, the cell viability ([3]; 1000 nM) was 79.4% and the cell viability ([3]; 10000 nM) was 25.9%. For the same molecule, the cell viability ([4]; 1 nM) was 77.2%, the cell viability ([4]; 10 nM) was 87.3% and the cell viability ([4]; 100 nM) was 96.2%. The cell viability ([4]; 1000 nM) was 70.4%, the cell viability ([4]; 10000 nM) was 50.5% and the cell viability ([5]; 1 nM) was 73%. For the same molecule, the cell viability ([5]; 10 nM) was 15.3%, the cell viability ([5]; 100 nM) was 96.8% and the cell viability ([5]; 1000 nM) was 78.5%. It also gave a cell viability ([5]; 10000 nM) of 47.9%, a cell viability ([6]; 1 nM) of 74.6% and a cell viability ([6]; 10 nM) of 70.9%. For the same molecule, the cell viability ([6]; 100 nM) was over 100%, the cell viability ([6]; 1000 nM) was 58.8% and the cell viability ([6]; 10000 nM) was 30.3%. It also gave a cell viability ([7]; 1 nM) of 87.2%, a cell viability ([7]; 10 nM) of 56.5% and a cell viability ([7]; 100 nM) of 90.5%. For the same molecule, the cell viability ([7]; 1000 nM) was 60.7%, the cell viability ([7]; 10000 nM) was 31.2% and the cell viability ([8]; 1 nM) was 97.3%. It also gave a cell viability ([8]; 10 nM) of 87.3%, a cell viability ([8]; 100 nM) of over 100% and a cell viability ([8]; 1000 nM) of over 100%. The cell viability ([8]; 10000 nM) was 72.6%, the cell viability ([9]; 1 nM) was 63.4% and the cell viability ([9]; 10 nM) was 49.7%. The cell viability ([9]; 100 nM) was over 100%, the cell viability ([9]; 1000 nM) was 33.1% and the cell viability ([9]; 10000 nM) was 69.9%.
In the case of `O=C(Oc1cccc(F)c1OC(=O)c1cccc(O)c1)c1cccc(O)c1` [WZB117], the cell viability ([1]; 1 nM) is reported as 96.3%, the cell viability ([1]; 10 nM) is reported as 87.9% and the cell viability ([1]; 100 nM) is reported as 87.1%. It also gave a cell viability ([1]; 1000 nM) of 93.3%, a cell viability ([1]; 10000 nM) of 62.6% and a cell viability ([2]; 1 nM) of 95.5%. The cell viability ([2]; 10 nM) was 67.8%, the cell viability ([2]; 100 nM) was 79.7% and the cell viability ([2]; 1000 nM) was 51.9%. It also gave a cell viability ([2]; 10000 nM) of 11%, a cell viability ([3]; 1 nM) of 96.4% and a cell viability ([3]; 10 nM) of 78.9%. The cell viability ([3]; 100 nM) was 86.1%, the cell viability ([3]; 1000 nM) was 75.7% and the cell viability ([3]; 10000 nM) was 61.3%. For the same molecule, the cell viability ([4]; 1 nM) was 94.5%, the cell viability ([4]; 10 nM) was 82.1% and the cell viability ([4]; 100 nM) was 85.2%. The cell viability ([4]; 1000 nM) was 99%, the cell viability ([4]; 10000 nM) was 17.3% and the cell viability ([5]; 1 nM) was 70.4%. The cell viability ([5]; 10 nM) was 90.9%, the cell viability ([5]; 100 nM) was 74.7% and the cell viability ([5]; 1000 nM) was 54.5%. For the same molecule, the cell viability ([5]; 10000 nM) was 31.5%, the cell viability ([6]; 1 nM) was 89.6% and the cell viability ([6]; 10 nM) was 97.1%. For the same molecule, the cell viability ([6]; 100 nM) was 85.6%, the cell viability ([6]; 1000 nM) was 87.9% and the cell viability ([6]; 10000 nM) was 8.3%. For the same molecule, the cell viability ([7]; 1 nM) was 97.9%, the cell viability ([7]; 10 nM) was 61.5% and the cell viability ([7]; 100 nM) was 74%. It also gave a cell viability ([7]; 1000 nM) of 90.2%, a cell viability ([7]; 10000 nM) of 5.34% and a cell viability ([8]; 1 nM) of 98.4%. It also gave a cell viability ([8]; 10 nM) of 92.8%, a cell viability ([8]; 100 nM) of 95.5% and a cell viability ([8]; 1000 nM) of 86.4%. It also gave a cell viability ([8]; 10000 nM) of 57%, a cell viability ([9]; 1 nM) of 96.7% and a cell viability ([9]; 10 nM) of 71.3%. The cell viability ([9]; 100 nM) was 83%, the cell viability ([9]; 1000 nM) was 72.5% and the cell viability ([9]; 10000 nM) was under 0%.
For `CC(C)(Cc1ccccc1)NCC(O)c1ccc(O)c(NS(C)(=O)=O)c1` (stereo not given) [Zinterol hydrochloride], the cell viability ([1]; 1 nM) was over 100%, the cell viability ([1]; 10 nM) was over 100% and the cell viability ([1]; 100 nM) was over 100%. The cell viability ([1]; 1000 nM) was over 100%, the cell viability ([1]; 10000 nM) was over 100% and the cell viability ([2]; 1 nM) was 88.5%. For the same molecule, the cell viability ([2]; 10 nM) was 96.4%, the cell viability ([2]; 100 nM) was over 100% and the cell viability ([2]; 1000 nM) was 85.3%. For the same molecule, the cell viability ([2]; 10000 nM) was 85.5%, the cell viability ([3]; 1 nM) was 87% and the cell viability ([3]; 10 nM) was over 100%. The cell viability ([3]; 100 nM) was 95.8%, the cell viability ([3]; 1000 nM) was 95.8% and the cell viability ([3]; 10000 nM) was 68.9%. The cell viability ([4]; 1 nM) was 87.7%, the cell viability ([4]; 10 nM) was 94.7% and the cell viability ([4]; 100 nM) was 82.8%. It also gave a cell viability ([4]; 1000 nM) of 93.3%, a cell viability ([4]; 10000 nM) of 97.3% and a cell viability ([5]; 1 nM) of 61%. The cell viability ([5]; 10 nM) was 94.8%, the cell viability ([5]; 100 nM) was 38.2% and the cell viability ([5]; 1000 nM) was over 100%. It also gave a cell viability ([5]; 10000 nM) of over 100%, a cell viability ([6]; 1 nM) of 54.3% and a cell viability ([6]; 10 nM) of over 100%. It also gave a cell viability ([6]; 100 nM) of 76.6%, a cell viability ([6]; 1000 nM) of over 100% and a cell viability ([6]; 10000 nM) of over 100%. The cell viability ([7]; 1 nM) was 73.4%, the cell viability ([7]; 10 nM) was 87.2% and the cell viability ([7]; 100 nM) was 91.3%. For the same molecule, the cell viability ([7]; 1000 nM) was 90.7%, the cell viability ([7]; 10000 nM) was 75.6% and the cell viability ([8]; 1 nM) was 90.2%. For the same molecule, the cell viability ([8]; 10 nM) was 98.3%, the cell viability ([8]; 100 nM) was 93.9% and the cell viability ([8]; 1000 nM) was 99%. The cell viability ([8]; 10000 nM) was 97.5%, the cell viability ([9]; 1 nM) was 84.7% and the cell viability ([9]; 10 nM) was over 100%. It also gave a cell viability ([9]; 100 nM) of 93.4%, a cell viability ([9]; 1000 nM) of 90.2% and a cell viability ([9]; 10000 nM) of 87.3%.
